Source: patent publication US20150139959A1 (priority 2009, published 2015)

Experiments:
Caco-2 cells = type: cell-based, Human
[1] = 14-day daily gavage toxicity study, body and organ weights; settings: for Feed efficacy (Body weight gain/Food Consumption) / Final body weight: 14 days
3T3 mouse fibroblasts = type: cell-based

SMILES | MTT bioassay IC50 (95% Confidence Interval) (Caco-2 cells) | Food Consumption during the 14 days ([1]; 25 mg/kg bw) [g] | Feed efficacy (Body weight gain/Food Consumption) ([1]; 25 mg/kg bw) | Final body weight ([1]; 25 mg/kg bw) [g] | Food Consumption during the 14 days ([1]; 100 mg/kg bw) [g] | Feed efficacy (Body weight gain/Food Consumption) ([1]; 100 mg/kg bw) | Final body weight ([1]; 100 mg/kg bw) [g] | BrdU bioassay IC50 (95% Confidence Interval) (3T3 mouse fibroblasts) | Food Consumption during the 14 days ([1]; 2 mg/kg bw) [g] | Feed efficacy (Body weight gain/Food Consumption) ([1]; 2 mg/kg bw)
CC1=C[C@H]2O[C@@H]3[C@H](O)C[C@](C)([C@@]2(CO)[C@H](O)C1=O)[C@]31CO1 [3-epi-DON] | 146 (100, 212) μg/mL | 85.860 | 0.0475 | 21.390 | 85.760 | 0.0413 | 21.680 | 281 (156, 505) μg/mL |  | 
CC1=C[C@H]2O[C@@H]3[C@H](O)C[C@](C)([C@@]2(CO)[C@H](O)C1=O)[C@]31CO1 [DON, Deoxynivalenol, reference compound] | 0.409 (0.324, 0.518) μg/mL |  |  |  |  |  |  | 0.238 (0.162, 0.349) μg/mL | 81.090 | 0.0252
